Results: PubChem BioAssay (NCI)
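Five concentrations, 48 hours, 96-well plates. TGI marks complete inhibition of growth.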

How the values were obtained:
Test in all cases: inhibition of tumour cell growth, NCI panel, 48 h
[1] = system: SNB-75 CNS
[2] = system: KM12 colon
[3] = system: MDA-MB-435
[4] = system: IGROV1 ovarian
[5] = system: MDA-N
[6] = system: SK-OV-3 ovarian
[7] = system: K-562 leukemia
[8] = system: MDA-MB-231 breast
[9] = system: A549 NSCLC
[10] = system: OVCAR-4 ovarian
[11] = system: UO-31 renal
[12] = system: M14 melanoma
[13] = system: HS 578T breast
[14] = system: HL-60(TB) leukemia
[15] = system: SF-268 CNS
[16] = system: OVCAR-3 ovarian
[17] = system: T-47D breast
[18] = system: NCI-H226 lung
[19] = system: 786-0 renal
[20] = system: PC-3 prostate
[21] = system: A498 renal
[22] = system: SW-620 colon
[23] = system: HOP-62 NSCLC
[24] = system: HCT-15 colon
[25] = system: NCI-H460 lung
[26] = system: NCI/ADR-RES ovarian
[27] = system: ACHN renal
[28] = system: RXF 393 renal
[29] = system: SR leukemia
[30] = system: SF-539 CNS
[31] = system: SN12C renal
[32] = system: UACC-62 melanoma
[33] = system: HT29 colon
[34] = system: SNB-19 CNS
[35] = system: MOLT-4 leukemia
[36] = system: EKVX NSCLC
[37] = system: HCT-116 colon
[38] = system: COLO 205 colon
[39] = system: SK-MEL-28 melanoma
[40] = system: CAKI-1 renal
[41] = system: OVCAR-5 ovarian
[42] = system: UACC-257 melanoma
[43] = system: CCRF-CEM leukemia
[44] = system: SF-295 CNS
[45] = system: TK-10 renal
[46] = system: SK-MEL-5 melanoma
[47] = system: HOP-92 NSCLC
[48] = system: MALME-3M melanoma
[49] = system: DU-145 prostate
[50] = system: NCI-H23 lung
[51] = system: OVCAR-8 ovarian
[52] = system: SK-MEL-2 melanoma
[53] = system: RPMI-8226 leukemia
[54] = system: U251 CNS
[55] = system: NCI-H522 lung
[56] = system: HCC-2998 colon
[57] = system: MCF7 breast
[58] = system: BT-549 breast
[59] = system: LOX IMVI melanoma

`CC12CCC(CC(=O)/C1=C(/Br)I)C2(C)C` (stereo not given) gave a TGI [1] of 31 µM, a TGI [2] of 32 µM and a TGI [3] of 28.6 µM. It also gave a TGI [4] of 31.4 µM, a TGI [5] of 26.7 µM and a TGI [6] of 45.4 µM. For the same compound, the TGI [7] was 26.4 µM, the TGI [8] was 17.6 µM and the TGI [9] was 29.3 µM. It also gave a TGI [10] of 29.1 µM, a TGI [11] of 32.1 µM and a TGI [12] of 28.3 µM. It also gave a TGI [13] of 44 µM, a TGI [14] of 12 µM and a TGI [15] of 28.9 µM. It also gave a TGI [16] of 26.9 µM, a TGI [17] of 46.4 µM and a TGI [18] of 29.9 µM. For the same compound, the TGI [19] was 30.2 µM, the TGI [20] was 23.6 µM and the TGI [21] was 33.7 µM. The TGI [22] was 34.4 µM, the TGI [23] was 32.1 µM and the TGI [24] was 31.2 µM. For the same compound, the TGI [25] was over 100 µM, the TGI [26] was 29.8 µM and the TGI [27] was 32.1 µM. It also gave a TGI [28] of 20.6 µM, a TGI [29] of 39 µM and a TGI [30] of 29.2 µM. The TGI [31] was 29.6 µM, the TGI [32] was 30.4 µM and the TGI [33] was 25 µM. It also gave a TGI [34] of 30.7 µM, a TGI [35] of 23.9 µM and a TGI [36] of 36.6 µM. For the same compound, the TGI [37] was 24.9 µM, the TGI [38] was 31.9 µM and the TGI [39] was 30.4 µM. The TGI [40] was 31.2 µM, the TGI [41] was 8.76 µM and the TGI [42] was 29.8 µM. It also gave a TGI [43] of 30.5 µM, a TGI [44] of 3.03 µM and a TGI [45] of 32.9 µM. For the same compound, the TGI [46] was 23.6 µM, the TGI [47] was 31.6 µM and the TGI [48] was 25.8 µM. For the same compound, the TGI [49] was 34.8 µM, the TGI [50] was 27.9 µM and the TGI [51] was 34.3 µM. It also gave a TGI [52] of 30.3 µM and a TGI [53] of 26.4 µM.

Work on `O=C1C=CC(=O)c2c1ccc1c3ccccc3n(Cc3ccc([N+](=O)[O-])cc3)c21` yielded a TGI [1] of over 100 µM, a TGI [2] of over 100 µM and a TGI [3] of over 100 µM. For the same compound, the TGI [4] was over 100 µM, the TGI [5] was over 100 µM and the TGI [6] was over 100 µM. For the same compound, the TGI [7] was 48.8 µM, the TGI [8] was over 100 µM and the TGI [9] was over 100 µM. The TGI [10] was over 100 µM, the TGI [11] was over 100 µM and the TGI [12] was over 100 µM. The TGI [14] was 33.2 µM, the TGI [15] was over 100 µM and the TGI [16] was over 100 µM. It also gave a TGI [17] of over 100 µM, a TGI [18] of over 100 µM and a TGI [19] of over 100 µM. For the same compound, the TGI [20] was over 100 µM, the TGI [54] was over 100 µM and the TGI [55] was 55.4 µM. The TGI [22] was over 100 µM, the TGI [23] was over 100 µM and the TGI [24] was over 100 µM. It also gave a TGI [25] of over 100 µM, a TGI [26] of over 100 µM and a TGI [27] of over 100 µM. For the same compound, the TGI [28] was over 100 µM, the TGI [29] was 37.3 µM and the TGI [30] was over 100 µM. The TGI [31] was over 100 µM, the TGI [32] was over 100 µM and the TGI [56] was over 100 µM. It also gave a TGI [33] of over 100 µM, a TGI [34] of over 100 µM and a TGI [57] of over 100 µM. It also gave a TGI [35] of 54.2 µM, a TGI [36] of over 100 µM and a TGI [37] of over 100 µM. The TGI [58] was over 100 µM, the TGI [38] was over 100 µM and the TGI [39] was over 100 µM. For the same compound, the TGI [40] was over 100 µM, the TGI [42] was over 100 µM and the TGI [43] was 40.8 µM. It also gave a TGI [44] of over 100 µM, a TGI [45] of over 100 µM and a TGI [46] of over 100 µM. It also gave a TGI [49] of over 100 µM, a TGI [50] of over 100 µM and a TGI [51] of over 100 µM.

`c1ncn(C23C4C5C6C4C2C6C53)n1` (stereo not given) showed a TGI [1] of over 100 µM, a TGI [2] of over 100 µM and a TGI [3] of over 100 µM. The TGI [4] was over 100 µM, the TGI [5] was over 100 µM and the TGI [6] was over 100 µM. The TGI [7] was over 100 µM, the TGI [8] was over 100 µM and the TGI [9] was over 100 µM. It also gave a TGI [13] of over 100 µM, a TGI [14] of over 100 µM and a TGI [15] of over 100 µM. The TGI [17] was over 100 µM, the TGI [18] was over 100 µM and the TGI [19] was over 100 µM. For the same compound, the TGI [20] was over 100 µM, the TGI [54] was over 100 µM and the TGI [55] was over 100 µM. For the same compound, the TGI [21] was over 100 µM, the TGI [22] was over 100 µM and the TGI [23] was over 100 µM. For the same compound, the TGI [24] was over 100 µM, the TGI [25] was over 100 µM and the TGI [26] was over 100 µM. It also gave a TGI [27] of over 100 µM, a TGI [29] of over 100 µM and a TGI [30] of over 100 µM. The TGI [31] was over 100 µM, the TGI [59] was over 100 µM and the TGI [56] was over 100 µM. For the same compound, the TGI [33] was over 100 µM, the TGI [34] was over 100 µM and the TGI [57] was over 100 µM. It also gave a TGI [35] of over 100 µM, a TGI [36] of over 100 µM and a TGI [37] of over 100 µM. It also gave a TGI [38] of over 100 µM, a TGI [39] of over 100 µM and a TGI [41] of over 100 µM. It also gave a TGI [42] of over 100 µM, a TGI [43] of over 100 µM and a TGI [44] of over 100 µM. For the same compound, the TGI [45] was over 100 µM, the TGI [46] was over 100 µM and the TGI [49] was over 100 µM. It also gave a TGI [50] of over 100 µM, a TGI [51] of over 100 µM and a TGI [52] of over 100 µM. It also gave a TGI [53] of over 100 µM.

In the case of `O=c1[nH]cc(NCCCl)c(=O)[nH]1`, the TGI [1] is reported as over 100 µM, the TGI [2] is reported as over 100 µM and the TGI [3] is reported as over 100 µM. For the same compound, the TGI [4] was over 100 µM, the TGI [5] was over 100 µM and the TGI [6] was over 100 µM. It also gave a TGI [7] of over 100 µM, a TGI [8] of over 100 µM and a TGI [9] of over 100 µM. It also gave a TGI [10] of over 100 µM, a TGI [11] of over 100 µM and a TGI [12] of over 100 µM. For the same compound, the TGI [15] was over 100 µM, the TGI [16] was over 100 µM and the TGI [17] was over 100 µM. It also gave a TGI [18] of over 100 µM, a TGI [19] of over 100 µM and a TGI [20] of over 100 µM. The TGI [54] was over 100 µM, the TGI [55] was over 100 µM and the TGI [21] was over 100 µM. It also gave a TGI [22] of over 100 µM, a TGI [23] of over 100 µM and a TGI [24] of over 100 µM. The TGI [25] was over 100 µM, the TGI [26] was over 100 µM and the TGI [27] was over 100 µM. For the same compound, the TGI [28] was over 100 µM, the TGI [29] was over 100 µM and the TGI [30] was over 100 µM. It also gave a TGI [31] of over 100 µM, a TGI [32] of over 100 µM and a TGI [59] of over 100 µM. It also gave a TGI [56] of over 100 µM, a TGI [33] of over 100 µM and a TGI [34] of over 100 µM. For the same compound, the TGI [57] was over 100 µM, the TGI [35] was over 100 µM and the TGI [36] was over 100 µM. For the same compound, the TGI [37] was over 100 µM, the TGI [58] was over 100 µM and the TGI [38] was over 100 µM. The TGI [39] was over 100 µM, the TGI [40] was over 100 µM and the TGI [41] was over 100 µM. For the same compound, the TGI [42] was over 100 µM, the TGI [43] was over 100 µM and the TGI [44] was over 100 µM. It also gave a TGI [45] of over 100 µM, a TGI [46] of over 100 µM and a TGI [47] of over 100 µM. For the same compound, the TGI [48] was over 100 µM, the TGI [49] was over 100 µM and the TGI [50] was over 100 µM. The TGI [51] was over 100 µM, the TGI [52] was over 100 µM and the TGI [53] was over 100 µM.
